Measured values reported in paper PMC8838631, “Pistacia lentiscus L. Distilled Leaves as a Potential Cosmeceutical Ingredient: Phytochemical Characterization, Transdermal Diffusion, and Anti-Elastase and Anti-Tyrosinase Activities” (Molecules, 2022).
In brackets after ≈: the same amount, converted by molar mass. Read-outs that look alike come from different tables or passages of the source.

Assays:
[1] = target: porcine pancreatic elastase (Sus scrofa, UniProt P00772); experiment: Elastase inhibition assay (N-succinyl-Ala-Ala-Ala-p-nitroanilide substrate); assay type: biochemical; conditions: for remaining activity at 100 µg/mL: read-out: Elastase activity (% of control)
Description: The elastase inhibition activity of EAE and its pure molecules FC and FM2 was evaluated at different concentrations ranging from 12 to 100 µg/mL. […] At a concentration of 100 µg/mL, the percentages of elastase activity with EAE, FC, and FM2 were equal to 12%, 42%, and 29%, respectively. Besides, the percentage of elastase activity with Epigallocatechin gallate was 8%.
The elastase inhibitory effect of our samples was evaluated as described by Angelis et al., using the enzyme porcine pancreatic elastase and the substrate N-succinyl-Ala-Ala-Ala-p-nitroanilide. The extract and the pure molecules were evaluated at concentrations ranging between 12 and 100 µg/mL. Epigallocatechin gallate was used as a positive control. The elastase inhibition was measured using Equation (3):% Elastase inhibition = (ODcontrol − ODsample) ODcontrol × 100(3)

[2] = Transdermal diffusion, Franz diffusion cell with strat-M membrane; assay type: in vitro ADME; conditions: 5% EAE-hydro-cream, 24 h of incubation; for µg of Crossed Molecule/g of 5% Hydro-cream: strat-M membrane, 37 °C, mean ± SD (n = 9)
Description: The transdermal diffusion of 5% EAE-hydro-cream formulation was evaluated using Franz diffusion cell and start-M membrane. […] The receptor medium of the Franz cell was analyzed by HPLC-MS to determine the bioactive compounds that crossed the strat-M membrane after 24 h of incubation. […] The bioactive molecules FC and FM2 that crossed the strat-M membrane were subjected to quantification. […] Moreover, FC has crossed the membrane but with a lower concentration than FM2 (Table 4).
Transdermal diffusion was evaluated using a Franz diffusion cell system, as mentioned by Chuang et al. with certain modifications. Firstly, the start-M membrane, a model membrane for transdermal diffusion, was mounted in a Franz diffusion cell. Then, 5 mL of 0.1 M sodium phosphate buffer (PBS) and 1 g of extract formulation cream were placed in the receptor and the donor compartments, respectively. The extract formulation cream was prepared by mixing the hydro-cream base emulsion purchased from Galderma and the EAE at 5% (w/w) by a mechanical stirrer (VMI Rayneri, Francelab, Paris, France). The receptor medium of the Franz cell was maintained at 37 °C and stirred with a magnetic stirrer at 400 rpm. After 24 h, the receptor medium was recovered, evaporated, freeze-dried, and then 4 mL of MeOH was added. The sample was filtered through a 0.45 filter and analyzed by HPLC-MS to determine the bioactive molecules that were released from the start-M membrane. The bioactive molecules that crossed the start-M membrane were then quantified, as described in Section 4.4.6, by injecting the receptor medium through HPLC-DAD at a concentration of 10 mg/mL. Results were expressed as µg of molecule crossed the membrane/g of 5% EAE-hydro-cream.

[3] = target: T1, cellular tyrosinase in B16 cells (Mus musculus, UniProt P11344); experiment: Cellular tyrosinase activity assay on B16 cells; assay type: cell-based
T1 sequence (P11344 19-533): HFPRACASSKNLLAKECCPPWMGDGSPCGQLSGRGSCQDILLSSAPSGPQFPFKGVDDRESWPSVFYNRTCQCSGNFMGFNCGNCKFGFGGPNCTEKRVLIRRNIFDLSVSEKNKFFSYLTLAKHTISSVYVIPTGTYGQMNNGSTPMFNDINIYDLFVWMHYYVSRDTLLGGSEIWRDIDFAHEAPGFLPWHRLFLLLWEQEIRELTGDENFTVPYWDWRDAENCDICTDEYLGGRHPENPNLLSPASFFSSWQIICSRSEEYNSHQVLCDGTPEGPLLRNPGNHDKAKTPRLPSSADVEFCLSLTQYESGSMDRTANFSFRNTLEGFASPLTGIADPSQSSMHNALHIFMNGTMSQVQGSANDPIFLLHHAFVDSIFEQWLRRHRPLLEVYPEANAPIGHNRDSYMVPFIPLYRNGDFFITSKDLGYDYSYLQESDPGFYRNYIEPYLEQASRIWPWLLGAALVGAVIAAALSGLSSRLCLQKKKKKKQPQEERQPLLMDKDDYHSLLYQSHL
Description: The cellular tyrosinase inhibition activity on B16 cells was evaluated using EAE, FC, and FM2.
(§1) B16 cells (C57BL/6, Resource No. RBRC-RCB0557) used in this study were prepared as described by Elloumi et al..
The cellular tyrosinase activity on B16 cells was evaluated as described by Kamei et al. with some modifications. Briefly, B16 cells were incubated in a 96-well plate (25 × 10^3 cells/well) for 24 h. […] After that, the cells were washed with PBS and lysed with PBS supplemented with 1% of Triton-X/PBS, after 48 h of samples exposure. A volume of 100 µL of 0.1% L-DOPA was added to the wells for 1 h. […] The cellular tyrosinase inhibition was measured as follows:% Cellular tyrosinase inhibition = (ODcontrol − ODsample)/ODcontrol × 100(5)

[4] = Cell viability / cytotoxicity, MTT assay; conditions: mouse
Description: (§2) The cell viability of EAE and the two major isolated molecules FC and FM2 were evaluated against B16 cells.
as §1
(§3) The MTT assay was performed to evaluate the cytotoxicity effect of our samples on B16 cells. Different sample concentrations (2.5–80 µg/mL) were applied to the Cells. The […] was measured as follows:% Cell viability = (ODsample/ODcontrol) × 100(4)

B16 cells = experiment: Cell viability / cytotoxicity, MTT assay; conditions: B16 cells, MTT; viability above 70% considered non-toxic (ISO 10993-5)
Description: as §2, §1, §3

mushroom tyrosinase = experiment: Tyrosinase inhibition assay (L-DOPA substrate); assay type: biochemical; conditions: for IC50 of tyrosinase activity: L-DOPA; for Tyrosinase activity (% of control): at a concentration of 100 µg/mL
Description: EAE and its pure molecules FC and FM2 were evaluated in vitro for their tyrosinase inhibition activity.
The inhibitory effect of our samples on the mushroom tyrosinase enzyme was analyzed using the substrate L-DOPA [71]. The extract and the pure molecules were evaluated at concentrations ranging between 12 and 200 µg/mL. […] The tyrosinase inhibition was measured as follows:% Tyrosinase inhibition = (ODcontrol − ODsample)/ODcontrol × 100(2)

[5] = DPPH radical scavenging assay
Description: The DPPH scavenging test was carried out using the method mentioned by Brand-Williams et al.. The percentage of DPPH scavenging was measured using Equation (1): % DPPH scavenging = (ODcontrol − ODsample)/ODcontrol × 100(1)

[6] = at a concentration of 100 µg/mL

Chain of porcine pancreatic elastase (P00772 27-266): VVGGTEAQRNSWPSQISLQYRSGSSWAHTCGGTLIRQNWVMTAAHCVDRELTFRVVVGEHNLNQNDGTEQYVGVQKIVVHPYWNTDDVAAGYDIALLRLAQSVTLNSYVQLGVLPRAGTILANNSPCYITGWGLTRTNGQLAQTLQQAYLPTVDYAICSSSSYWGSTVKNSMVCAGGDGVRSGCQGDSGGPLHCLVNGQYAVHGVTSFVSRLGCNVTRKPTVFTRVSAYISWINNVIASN

## O=C(O[C@@H]1Cc2c(O)cc(O)cc2O[C@@H]1c1cc(O)c(O)c(O)c1)c1cc(O)c(O)c(O)c1 [Epigallocatechin gallate, reference compound]
[1]; [6]
  Elastase activity (% of control): 8%
[1]; porcine pancreatic elastase
  IC50 of elastase activity: 12 µg/mL

## O=c1c(O[C@@H]2O[C@H](CO)[C@H](O)[C@H](O)[C@H]2O)c(-c2ccc(O)c(O)c2)oc2cc(O)cc(O)c12 [quercetin-3-O-galactoside]
[2]
  Crossing of the strat-M membrane (detected in receptor medium by HPLC-MS): have crossed the membrane

## C[C@@H]1O[C@@H](Oc2c(-c3cc(O)c(O)c(O)c3)oc3cc(O)cc(O)c3c2=O)[C@H](O)[C@H](O)[C@H]1O [FM2, myricetin-3-O-rhamnoside]
[3]; B16 cells, 48 h of samples exposure, read-out: Cellular tyrosinase inhibition IC50 (converted)
  IC50: 9.91 µM
[2]
  Crossing of the strat-M membrane (detected in receptor medium by HPLC-MS): have crossed the membrane
  µg of Crossed Molecule/g of 5% Hydro-cream: 52.102 ± 0.001 µg/g of 5% hydro-cream
[4]; B16 cells
  IC50: 19.3 ± 1.22 µg/mL (≈ 41.6 µM)
B16 cells
  Concentration that did not decrease the percentage of cell viability: ≤ 10000 ng/mL
Mushroom tyrosinase
  IC50 of tyrosinase activity: 34 µg/mL
  Tyrosinase activity (% of control): 10%
[1]; [6]
  remaining activity at 100 µg/mL: 29%
[1]; porcine pancreatic elastase, read-out: IC50 of elastase activity (converted)
  IC50: 96.9 µM

## C[C@@H]1O[C@@H](Oc2c(-c3ccc(O)c(O)c3)oc3cc(O)cc(O)c3c2=O)[C@H](O)[C@H](O)[C@H]1O [FC, quercetin-3-O-rhamnoside]
[3]
  IC50: 7.49 µM
[2]
  Crossing of the strat-M membrane (detected in receptor medium by HPLC-MS): have crossed the membrane
  µg of Crossed Molecule/g of 5% Hydro-cream: 3.161 ± 0.006 µg/g of 5% hydro-cream
[4]
  IC50: 6.4 ± 0.53 µg/mL (≈ 14.3 µM)
B16 cells
  Concentration that did not decrease the percentage of cell viability: ≤ 2500 ng/mL
Mushroom tyrosinase
  IC50 of tyrosinase activity: 49 µg/mL
  Tyrosinase activity (% of control): 9%
[1]
  IC50: 192 µM
[1]; [6]
  remaining activity at 100 µg/mL: 42%

## O=c1cc(CO)occ1O [kojic acid, reference compound]
Mushroom tyrosinase
  Tyrosinase activity (% of control): 7%

## O=C1O[C@H]([C@@H](O)CO)C(O)=C1O [Ascorbic acid]
[5]
  DPPH IC50: 13.85 µg/mL
